Series [1] concerns the target T1, NEP (Homo sapiens, UniProt P08473).
T1 construct: purchased R & D systems 1182-ZNC-010
Briefly: NEP enzyme kinetics study with QFS (Example 5). In kind it is biochemical. Conditions: NEP QFS 0-120 μM; pre-incubation 1 h at 37° C. On the procedure:
(§1) Plate reader-based enzyme assays were performed using a quenched fluorescent substrate (QFS) in a 96-well format using a SpectraMAX M4 Microplate reader (Molecular Devices). The increase in fluorescence following addition of QFS (40 μM) was taken as evidence of enzyme activity. Fluorescence was monitored over 2 h at 37° C. using κEx=320 nm and λEm=405 nm. Assays were conducted in black 96-well plates. Specific enzyme activity was expressed as a rate of substrate cleavage calculated using a standard curve of 7-methoxy-coumarin-4-acetic acid.
In all plate reader-based enzyme assays using QFS, the reaction rate (μmol of substrate cleaved/min) was calculated using linear regression analysis (GraphPad Prism software version 8.01). The reaction rates calculated were used to generate the enzyme kinetic parameters Vmax and Km through non-linear regression analysis (GraphPad Prism software, version 8.01; Michaelis-Menten equation). Where indicated, enzyme activity in the presence of peptide was expressed as a % of the enzyme alone. Data were expressed as mean±SEM and statistical significance was determined using t-tests or one-way ANOVAs followed by Tukey's post-hoc test. P<0.05 was considered as statistically significant. In all assays conducted using 96-well plates, the reaction mixtures in each well were considered an independent experiment. […]

The target of the next series is T2, ACE1 (Homo sapiens, UniProt P12821).
T2 construct: purchased Sigma Aldrich SRP6270-10UG
Description: QFS assay of Aβ-degrading enzymes: ACE1 (Example 6). It counts as biochemical. How it is done:
as §1
(§2) In all plate reader-based enzyme assays using QFS, the reaction rate (μmol of substrate cleaved/min) was calculated using linear regression analysis (GraphPad Prism software version 8.01). The reaction rates calculated were used to generate the enzyme kinetic parameters Vmax and Km through non-linear regression analysis (GraphPad Prism software, version 8.01; Michaelis-Menten equation). Where indicated, enzyme activity in the presence of peptide was expressed as a % of the enzyme alone. Data were expressed as mean±SEM and statistical significance was determined using t-tests or one-way ANOVAs followed by Tukey's post-hoc test. P<0.05 was considered as statistically significant. In all assays conducted using 96-well plates, the reaction mixtures in each well were considered an independent experiment.
(§3) SEQ ID NO:2 was assessed in a QFS assay against enzymes NEP, ECE1, ECE2, ACE1, ACE2, IDE and MMP-2 using the method in Example 2 and the following procedure. NEP, ACE1, ECE2 (0.05 ng/μL), ACE2, IDE (0.10 ng/μL), and ECE1 (6.4 ng/μL) were incubated with SEQ ID NO:2 (0.9-26 μM) or scrambled control (9 μM) for 1 h at 37° C. Prior to use, MMP2 (0.50 ng/μL) was activated using p-aminophenylmercuric acetate to a final concentration of 100 μM for 1 h at 37° C. Following activation, MMP2 was incubated with SEQ ID NO:2 for 1 h at 37° C. before adding the appropriate QFS.

A further series relates to HEK293 cells. Briefly: Peptide stability study in HEK293 cells, LCMS (Example 4). Conditions: peptide 9 μM, Opti-MEM, 60 min. It counts as in vitro ADME. On the procedure: SEQ ID NO:2 was prepared as a C-terminal amidated analogue of SEQ ID NO:1. The stability of SEQ ID NO:1 and SEQ ID NO:2 was assessed in HEK293 and EA.hy926 cells grown in culture and their break down was monitored by LCMS over 60 min using the following procedure.
HEK293 (passage 24) or Ea.hy926 (passage 37) were seeded into tissue-culture-grade 96-well plates at a density of 20,000 cells/well. After 24 hr, cells were washed with PBS and replaced with Opti-MEM reduced serum media containing SEQ ID NO:1 or SEQ ID NO:2 (9 μM). Aliquots of equal volume were taken at T=0 and 60 min. SEQ ID NO:2 was added to control wells having media (no cells) only. Samples were immediately acidified in 0.1% TFA, snap frozen in dry ice and stored in −80° C. until analysed by LCMS.
Samples were analyzed by LC-MS/MS on a Shimadzu Nexera uHPLC (Japan) coupled to a Triple Tof 5600 mass spectrometer (ABSCIEX, Canada) equipped with a duo electrospray ion source. One μL of each extract was injected onto a 2.1 mm×100 mm Zorbax C18 1.8 um column (Agilent) at 200 μL/min. […] SEQ ID NO:1 and SEQ ID NO:2 were quantified using the […] doubly charged molecular ion from m/z 510.270 to 510.325. The data was acquired using Analyst TF 1.6 and quantification was carried out using MultiQuant 2.1.1 software (ABSCIEX, Canada).

Another series addresses T3, ACE2 (Homo sapiens, UniProt Q9BYF1).
T3 construct: purchased R & D systems 933-ZN-010
Briefly: QFS assay of Aβ-degrading enzymes: ACE2 (Example 6). It counts as biochemical. On the procedure: as §1, §2, §3

Series [2] has as its target T1, NEP. Briefly: QFS assay of Aβ-degrading enzymes: NEP (Example 6). In kind it is biochemical. On the procedure:
as §1, §2, §3

Consider one substance from US20240002441A1, “PEPTIDES AND USES THEREOF IN MODULATION OF AMYLOID-BETA PROTEIN DEGRADING PROTEASES” (priority 2020, published 2024).

T2 sequence (P12821 30-1306): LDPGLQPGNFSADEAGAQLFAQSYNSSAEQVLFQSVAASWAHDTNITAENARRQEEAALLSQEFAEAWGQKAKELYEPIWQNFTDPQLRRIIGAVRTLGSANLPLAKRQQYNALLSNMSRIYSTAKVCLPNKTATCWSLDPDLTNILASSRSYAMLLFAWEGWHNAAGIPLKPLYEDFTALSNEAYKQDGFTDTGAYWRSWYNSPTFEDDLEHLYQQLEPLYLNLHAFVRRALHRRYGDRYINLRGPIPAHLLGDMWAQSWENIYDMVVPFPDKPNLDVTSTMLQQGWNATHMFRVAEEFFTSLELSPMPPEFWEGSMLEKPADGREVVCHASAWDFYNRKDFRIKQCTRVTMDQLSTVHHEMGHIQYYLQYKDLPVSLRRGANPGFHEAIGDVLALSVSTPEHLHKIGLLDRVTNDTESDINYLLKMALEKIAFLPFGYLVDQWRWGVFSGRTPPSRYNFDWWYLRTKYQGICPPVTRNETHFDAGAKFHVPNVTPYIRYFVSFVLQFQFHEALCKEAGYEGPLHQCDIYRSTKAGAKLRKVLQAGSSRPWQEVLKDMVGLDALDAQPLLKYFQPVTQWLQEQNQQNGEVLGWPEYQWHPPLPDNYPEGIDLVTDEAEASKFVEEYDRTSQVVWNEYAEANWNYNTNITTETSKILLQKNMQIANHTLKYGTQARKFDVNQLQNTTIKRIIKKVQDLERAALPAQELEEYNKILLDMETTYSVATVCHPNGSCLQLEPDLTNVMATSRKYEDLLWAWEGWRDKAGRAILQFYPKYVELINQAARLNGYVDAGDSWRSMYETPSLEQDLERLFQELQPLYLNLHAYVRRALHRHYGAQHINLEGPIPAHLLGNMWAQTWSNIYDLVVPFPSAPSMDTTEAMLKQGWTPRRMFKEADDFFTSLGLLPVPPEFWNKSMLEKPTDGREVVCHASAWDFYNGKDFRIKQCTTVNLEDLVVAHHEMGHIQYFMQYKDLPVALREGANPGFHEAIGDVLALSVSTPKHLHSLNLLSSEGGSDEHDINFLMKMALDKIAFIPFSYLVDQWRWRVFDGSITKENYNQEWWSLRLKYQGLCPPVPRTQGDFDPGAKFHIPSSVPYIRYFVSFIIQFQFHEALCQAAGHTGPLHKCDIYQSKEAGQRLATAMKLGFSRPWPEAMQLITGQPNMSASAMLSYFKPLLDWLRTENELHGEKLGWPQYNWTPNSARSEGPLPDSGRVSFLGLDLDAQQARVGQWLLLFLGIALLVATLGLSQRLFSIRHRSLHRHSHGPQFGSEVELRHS
T3 sequence (Q9BYF1 18-805): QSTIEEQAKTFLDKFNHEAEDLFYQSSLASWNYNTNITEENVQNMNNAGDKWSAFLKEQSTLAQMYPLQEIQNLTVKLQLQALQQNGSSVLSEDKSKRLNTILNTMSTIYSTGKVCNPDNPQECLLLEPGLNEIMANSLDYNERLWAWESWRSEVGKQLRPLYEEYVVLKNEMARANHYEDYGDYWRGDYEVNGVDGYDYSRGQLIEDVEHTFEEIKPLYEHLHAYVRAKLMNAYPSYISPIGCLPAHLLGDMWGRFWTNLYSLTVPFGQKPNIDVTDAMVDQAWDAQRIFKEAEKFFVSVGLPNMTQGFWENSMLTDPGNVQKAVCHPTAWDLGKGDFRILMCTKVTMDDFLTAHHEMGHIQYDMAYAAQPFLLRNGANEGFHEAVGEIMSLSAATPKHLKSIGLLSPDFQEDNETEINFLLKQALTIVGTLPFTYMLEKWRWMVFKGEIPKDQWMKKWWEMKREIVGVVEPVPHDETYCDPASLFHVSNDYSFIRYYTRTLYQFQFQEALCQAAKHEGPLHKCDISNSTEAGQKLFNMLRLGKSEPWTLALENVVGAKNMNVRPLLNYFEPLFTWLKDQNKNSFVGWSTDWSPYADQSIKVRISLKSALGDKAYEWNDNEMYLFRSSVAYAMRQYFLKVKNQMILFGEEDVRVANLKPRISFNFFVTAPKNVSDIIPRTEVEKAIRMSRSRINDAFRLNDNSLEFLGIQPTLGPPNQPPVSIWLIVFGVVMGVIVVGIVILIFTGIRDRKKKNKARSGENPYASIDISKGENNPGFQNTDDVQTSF
T1 sequence (P08473 whole entry): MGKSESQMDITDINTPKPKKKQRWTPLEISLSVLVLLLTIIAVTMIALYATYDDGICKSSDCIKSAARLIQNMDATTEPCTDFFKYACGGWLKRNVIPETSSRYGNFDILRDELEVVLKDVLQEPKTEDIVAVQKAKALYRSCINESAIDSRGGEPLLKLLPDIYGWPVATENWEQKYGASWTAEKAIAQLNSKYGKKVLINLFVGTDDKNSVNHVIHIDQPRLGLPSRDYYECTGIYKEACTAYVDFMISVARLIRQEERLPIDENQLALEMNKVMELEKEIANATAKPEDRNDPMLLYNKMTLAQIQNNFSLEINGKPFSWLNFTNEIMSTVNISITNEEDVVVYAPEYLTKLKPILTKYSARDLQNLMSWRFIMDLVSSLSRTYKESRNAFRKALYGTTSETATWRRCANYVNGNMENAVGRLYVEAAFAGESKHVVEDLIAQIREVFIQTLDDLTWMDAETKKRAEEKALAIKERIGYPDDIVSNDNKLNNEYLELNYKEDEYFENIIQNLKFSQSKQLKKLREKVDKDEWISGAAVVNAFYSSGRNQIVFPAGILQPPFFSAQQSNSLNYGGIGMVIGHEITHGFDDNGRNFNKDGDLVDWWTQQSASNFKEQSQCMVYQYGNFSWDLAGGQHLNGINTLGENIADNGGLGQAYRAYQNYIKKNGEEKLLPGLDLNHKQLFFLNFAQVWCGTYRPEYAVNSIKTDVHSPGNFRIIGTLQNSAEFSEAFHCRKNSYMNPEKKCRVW

In the case of “H-SLFELGKMIL-NH2 [SEQ ID NO:2, H2N-SLFELGKMIL-NH2]”, the “vmax of rhNEP in the presence of peptide” value at NEP [1] was 0.035±0.002 μmol substrate cleaved/min. Further, the “ACE1 activity compared with respective enzyme alone” value at ACE1 (peptide 2 μM (FIG. 2c)) was “significantly increased”; at ACE1 (peptide 9 μM, significantly less compared with ACE2 and NEP) it was “significantly higher”. Also, the “ACE1 activity, concentration dependence” value at ACE1 (peptide 0.9-26 μM) was “increased the activity”. Further, the “amount remaining in the medium of HEK293 cells” value in the series with HEK293 cells is given as 54%±4%. Also, at ACE2 (peptide 2 μM (FIG. 2c)), the “ACE2 activity compared with respective enzyme alone” value is recorded as “significantly increased”. In addition, the “activity of ACE2 as % of enzyme alone controls” value on ACE2 (peptide 9 μM) was determined as 283%. The “ACE2 activity, concentration dependence” value at ACE2 (peptide 0.9-26 μM) is “increased the activity”. Also, the “submaximal concentration against NEP” value on NEP [2] amounted to 9 µM. For the same substance, the “NEP activity compared with respective enzyme alone” value at NEP [2] (peptide 2 μM (FIG. 2c)) was “significantly increased”. Moreover, at NEP [2] (peptide 9 μM), the “activity of NEP as % of enzyme alone controls” value came out at 380%. Further, the “NEP activity, concentration dependence” value on NEP [2] (peptide 0.9-26 μM) is reported as “increased the activity”.
